Paper PMC6337650 (Molecules, 2018)

Legend:
Assay type in all cases: cell-based, human
[1] = system: Cyclin A; test: Western blot, cyclin A in HCT-116 cells; settings: HCT-116, 5, 10 and 15 μM, 24 h, concentration-dependent
Procedure: HCT-116 cells were cultured with different concentrations of compound 5d for 24 h. Then, the floating cells was collected and washed two times with ice cold PBS. The pellet was resuspended in lysis buffer. After the cells were lysed on ice for 20 min, lysates were centrifuged at 12,000 rpm at 4 °C for 15 min. The protein concentration in the supernatant was determined using BCA protein assay reagents. Equal amounts of protein (50 μg) were resolved using sodium dodecyl sulphate-polyacrylamide gel electrophoresis (SDS-PAGE) (8−12% acrylamide gels) and transferred to a PVDF Hybond-P membrane. Membranes were blocked with PBS containing 5% non-fat milk for 1 h at room temperature. Membranes were then incubated with primary antibodies against Cyclin A (ENT1167, Elabscience, Wuhan, China), Cyclin E1 (ENT1176, Elabscience, Wuhan, China), Cyclin B1 (ENT1169, Elabscience, Wuhan, China) and β-actin (ENM0028, Elabscience, Wuhan, China), with gentle rotation overnight at 4 °C. Membranes were next incubated with fluorescent secondary antibodies for 2 h. Proteins were detected by electrochemiluminescence (Bio-Rad, Hercules, CA, USA).

[2] = system: BEL-7402 cells; test: MTT antiproliferative assay, BEL-7402
Procedure, shortened: (§1)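 Cells seeded at 9 × 10^3 per well, allowed 24 h to adhere, then exposed 48 h to compound at 1, 10, 50 and 100 µM. MTT added to 2 mg/mL for 4 h, formazan dissolved in DMSO, OD read at 492 nm; inhibition calculated relative to untreated and blank wells.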

[3] = system: HCT-116 cells; test: Apoptosis by annexin V-FITC/propidium iodide flow cytometry; settings: 24 h; for percentage of total apoptotic cells (UR + LR): control 5.98%
Procedure: Apoptosis was detected using an Apoptosis Detection Kit (Invitrogen, Eugene, OR, USA). In brief, cells were cultured in 6-well plates (5.0 × 10^5 cells per well) and incubated at 37 °C for 24 h. Cells with exponential growth were then incubated with compound 5d at 5 and 15 µM. Following 24 h of incubation, the cells were collected, washed twice with PBS and once with 1 × binding buffer and then stained with […] of annexin V-FITC and […] of PI 5mg/mL in 1 × binding buffer for 30 min at room temperature in the dark. Apoptotic cells were enumerated using a FACSCalibur flow cytometer with Cell Quest software (Becton–Dickinson, Franklin Lakes, NJ, USA).

[4] = MTT antiproliferative assay, HCT-116; settings: human, HCT-116 colorectal cancer cells versus normal L02 cells; HCT-116 vs L02
Procedure, shortened: as §1

[5] = system: HCT-116 cells; test: MTT antiproliferative assay, HCT-116
Procedure, shortened: as §1

[6] = IC50 on normal cells (L02)/IC50 on cancer cells

SMILES: Cc1ccc(-n2cc(CNC(=O)COC(=O)[C@]3(C)CCC[C@@]4(C)[C@@H]5CC[C@@]6(C)C[C@]5(CC[C@@H]43)CC6=O)nn2)cc1 [Compound 5d, 2-oxo-2-(((1-(p-tolyl)-1H-1,2,3-triazol-4-yl)methyl)amino)ethyl(4R,4aS,6aR,9S,11aR,11bS)-4,9,11b-trimethyl-8-oxotetradecahydro-6a,9-methanocyclohepta[a]naphthalene-4-carboxylate]
- cyclin A protein level [1]: decreased
- inhibition at 100 µM ([2]; Homo sapiens, Bel-7402, 100 μM, 48 h, MTT, mean ± SD, n=3, read-out: % Growth Inhibition at 100 μM BEL-7402): 86.5 ± 0.87%
- IC50 ([2]; Homo sapiens, Bel-7402, 48 h, MTT, mean ± SD, n=3): 15.9 ± 0.41 µM
- Selectivity Index BEL-7402 [2, 6]: 10.12
- fold more active than 5-FU ([2]; against BEL-7402 cells): 1.3 fold
- percentage of total apoptotic cells (UR + LR) ([3]; 5 μM): 7.67%
- percentage of total apoptotic cells (UR + LR) ([3]; 15 μM): 24.94%
- dead cells (UL) ([3]; 15 μM, control 8.84%): 49.22%
- selectivity ratio at 48 h [4]: 38.2
- inhibition at 100 µM ([5]; Homo sapiens, HCT-116, 100 μM, 48 h, MTT, mean ± SD, n=3, read-out: % Growth Inhibition at 100 μM HCT-116): 84.6 ± 0.96%
- IC50 ([5]; Homo sapiens, HCT-116, 48 h, MTT, mean ± SD, n=3): 5.38 ± 0.26 µM
- Selectivity Index HCT-116 [5, 6]: 29.93
- fold more active than 5-FU ([5]; against HCT-116 cells): 4.6 fold
